10 molecules from PMC4746387, “A Bioactivity-Based Method for Screening, Identification of Lipase Inhibitors, and Clarifying the Effects of Processing Time on Lipase Inhibitory Activity of Polygonum Multiflorum” (Evidence-based Complementary and Alternative Medicine : eCAM, 2016) can be followed below.

SMILES strings stand for the structures. Where two headings read alike, the source gives them in different places.

The target in experiment [1] is T1, lipase (Sus scrofa, UniProt P00591).
T1 construct: purchased Solar Bio Science Co. Ltd. (Beijing, China) L3126
T1 sequence (P00591 1-450): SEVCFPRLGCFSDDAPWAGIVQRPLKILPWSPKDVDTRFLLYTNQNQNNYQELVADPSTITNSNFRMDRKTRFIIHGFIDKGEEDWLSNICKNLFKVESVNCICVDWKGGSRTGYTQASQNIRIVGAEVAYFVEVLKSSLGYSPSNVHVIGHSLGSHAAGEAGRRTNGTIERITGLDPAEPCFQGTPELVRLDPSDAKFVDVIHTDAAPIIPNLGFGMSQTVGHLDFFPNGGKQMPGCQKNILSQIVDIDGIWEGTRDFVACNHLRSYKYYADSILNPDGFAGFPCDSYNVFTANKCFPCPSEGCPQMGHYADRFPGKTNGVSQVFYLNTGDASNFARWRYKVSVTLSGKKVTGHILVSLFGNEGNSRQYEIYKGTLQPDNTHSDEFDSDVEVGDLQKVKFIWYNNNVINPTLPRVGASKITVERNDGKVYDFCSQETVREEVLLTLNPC
In words: Assay for lipase inhibitory activity (4-methylumbelliferyl oleate substrate, fluorescence of 4-methylumbelliferone). The experiment is classed as biochemical. Conditions: for lipase inhibition ratio: at the concentration of 1.0 mg/mL; for IC50: reference standards (purity > 98%), eight diluted concentrations, 25°C, 20 min. Here is the method: 4-Methylumbelliferyl oleate (4.406 mg) was accurately weighed and dissolved by Tris-HCl solution (pH 8.0, 1.3 mM NaCl, and 1.3 mM CaCl2) with the final concentration of 0.1 mM. 100 mg lipase was dissolved with deionized water and the insoluble substances were removed by centrifugation at 14,000 rpm for 10 min. Finally, the concentration of enzyme solution was 1.0 mg/mL.
Gallic acid, catechin, epicatechin, polydatin, 2,3,5,4′-tetrahydroxystilbene-2-O-β-D-glucoside, resveratrol, emodin-8-O-glucoside, physcion-8-O-glucoside, rhein, emodin, and physcion with the concentration of 1.0 mg/mL were prepared in methanol for quality control. Rhein, emodin, and physcion were dissolved in DMSO (Dimethyl Sulfoxide) with suitable concentrations. The reference standards solution was diluted serially with 10% methanol for the bioassays. The concentrations of DMSO in a series of samples at different concentrations were less than 0.1% (v/v). […] It was prepared with 10% methanol and diluted to a series of different concentrations.
(§1) The assay of lipase was performed according to previous method with slight modifications. 25 μL test samples and 25 μL lipase solution were mixed together. Then, 50 μL 4-methylumbelliferyl oleate was added to the mixture. After incubating at 25°C for 20 min, 100 μL sodium citrate (0.1 M, pH 4.2) was added to stop the reaction. Finally, the amount of 4-methylumbelliferone released by lipase was measured by microplate reader at an excitation wavelength of 355 nm and an emission wavelength of 460 nm. The inhibitory activity was calculated by the formula: inhibition (%) = [1 − (A sample/A control)] × 100, where A sample and A control were absorbance of the test sample and the control, respectively.
In the bioassay experiments, all the analysis was carried out in triplicate. All values were expressed in the form of mean ± standard deviation (SD); IC50 values were determined by Graph Pad Prism 5 software.

The target of experiment [2] is T1, lipase. In words: Lipase inhibitory activity of enriched UHPLC fractions of P. multiflorum extract and their contribution to total activity (orlistat potency units). The experiment is classed as biochemical. Conditions: for lipase inhibitory effect of fractions of peaks: fractions of P. multiflorum extract enriched for 40 and 60 times, Figure 1; for contribution to the total lipase inhibitory activity: potency of individual fraction/total lipase inhibitory × 100%, orlistat equivalent potency units. How it is done:
When the P. multiflorum extract was injected into the UHPLC system, the fraction collector (BSZ-100, Shanghai QingpuHuxi Instrument, Shanghai, China) was used for the fraction collection by setting the time interval at 20 s. Then, the fractions were collected and evaporated to dryness by nitrogen gas. The residues were reconstituted and diluted for bioassays.
as §1
The extract was injected in UHPLC for the separation of the components and all fractions were collected for the bioassays. The lipase inhibitory effect was expressed as inhibition ratio (%), which could be calculated by the above mentioned formula. The time interval of fraction collector was set at 20 s according to the resolution and peak shape in the chromatogram. […] The fractions from the same peak were combined.
The potency calibration curve was constructed by plotting the potency (y) against the corresponding inhibition ratio (x). […] Then, the potency of the enriched fractions was determined by the curve mentioned above. […] The contribution of individual fractions was calculated by the formula: contribution (%) = potency of individual fraction/the total lipase inhibitory × 100%.

The mark [3] stands for this setting: read-out: IC50 (μg/mL) (converted).

`O.Oc1cc(O)c2c(c1)O[C@H](c1ccc(O)c(O)c1)[C@@H](O)C2` [Catechin]: the lipase inhibition ratio at lipase [1] is ≤ 50%. Besides, on lipase [2], the “lipase inhibitory effect of fractions of peaks” value is recorded as “relatively weak inhibitory effect”.
As for `Cc1cc(O[C@@H]2O[C@H](CO)[C@@H](O)[C@H](O)[C@H]2O)c2c(c1)C(=O)c1cc(O)cc(O)c1C2=O` [Emodin-8-O-glucoside], the “IC50” value on lipase [1] turned out to be 296.0 µg/mL. At lipase [2], the “lipase inhibitory effect of fractions of peaks” value was “strong inhibition” and the “contribution to the total lipase inhibitory activity” value is on record as “less than 10%”.
`Cc1cc(O)c2c(c1)C(=O)c1cc(O)cc(O)c1C2=O` [Emodin]: on lipase [1] (setting [3]), the IC50 is 1290 µM. On lipase [2], the “lipase inhibitory effect of fractions of peaks” value was “strong inhibition” and the “contribution to the total lipase inhibitory activity” value is on record as “less than 10%”.
As to `Oc1cc(O)c2c(c1)O[C@H](c1ccc(O)c(O)c1)[C@H](O)C2` [Epicatechin], the lipase inhibition ratio at lipase [1] was ≤ 50%. Moreover, the “lipase inhibitory effect of fractions of peaks” value at lipase [2] is “relatively weak inhibitory effect”.
Regarding `O=C(O)c1cc(O)c(O)c(O)c1` [Gallic acid], the lipase inhibition ratio on lipase [1] is on record as ≤ 50%. Moreover, on lipase [2], the “lipase inhibitory effect of fractions of peaks” value is listed as “relatively weak inhibitory effect”.
`COc1cc(O)c2c(c1)C(=O)c1cc(C)cc(OC3OC(CO)C(O)C(O)C3O)c1C2=O` (stereo not shown) [Physcion-8-O-glucoside]: at lipase [1], the “IC50” value came to 421.5 µg/mL. Moreover, the “lipase inhibitory effect of fractions of peaks” value at lipase [2] is listed as “strong inhibition”.
For the molecule `COc1cc(O)c2c(c1)C(=O)c1cc(C)cc(O)c1C2=O` [Physcion], the IC50 on lipase [1] (setting [3]) is 2860 µM. For the same molecule, at lipase [2], the “lipase inhibitory effect of fractions of peaks” value was “strong inhibition” and the “contribution to the total lipase inhibitory activity” value is recorded as “less than 10%”.
Consider `OC[C@H]1O[C@@H](Oc2cc(O)cc(/C=C/c3ccc(O)cc3)c2)[C@H](O)[C@@H](O)[C@@H]1O` [Polydatin], for which the “lipase inhibitory effect of fractions of peaks” value on lipase [2] was “relatively weak inhibitory effect”.
Consider `Oc1ccc(/C=C/c2cc(O)cc(O)c2)cc1` [Resveratrol], for which the IC50 at lipase [1] (setting [3]) is 2470 µM. Besides, the “lipase inhibitory effect of fractions of peaks” value on lipase [2] is “strong inhibition”.
For `O=C(O)c1cc(O)c2c(c1)C(=O)c1cccc(O)c1C2=O` [Rhein] the same measures were 813 µM and “strong inhibition”.
